Source: patent US7632813B2, “Bone densifying agent characterized by use of cathepsin K inhibitor with PTH” (Ono Pharmaceutical Co., Ltd., priority 2004, dated 2009)
Where no end group is shown, it is not given here.

What was measured:
Assay type in all cases: in vivo
[1] = system: ovariectomized rat osteoporosis model (OVX); assay: Experiment 2: urinary CTX concentration in OVX rats; settings: Experiment 2, FIG. 6
[2] = system: ovariectomized rat osteoporosis model (OVX); assay: Experiment 1 (administration schedule 1): BMD of left proximal tibia by pQCT in OVX rats; settings: for BMD of the left leg tibia (4 mm slice from proximal end) at intermediate autopsy: Experiment 1, FIG. 1, oral sole administration from next day of OVX, intermediate autopsy 56 days after OVX; for BMD of the left leg tibia on the 83rd day, in combination with PTH / BMD of the left leg tibia on the 83rd day, each alone: Experiment 1, FIG. 3; for BMD of the left leg tibia on the 83rd day, in combination with PTH: bone resorption inhibitor 83 days orally plus PTH 10 μg/kg s.c. from 57th day, versus PTH alone; for BMD of the left leg tibia on the 83rd day, each alone: sole administration, OVX-induced BMD loss
Excerpt: (§1) For the purpose of clarifying the characteristics, the effect of a cathepsin K inhibitor (a bone resorption inhibitor) in combination with a type of PTH (a bone formation stimulator) was examined using an ovariectomized rat osteoporosis model (abbreviated as OVX hereafter). The effect of a bisphosphonate (BP) in combination with a type of PTH was also examined. The effects were compared with each other.
(§2) In the following examples, PTH (1-34) is abbreviated as PTH unless specified. 2) Test Method Experiment 1 (Administration Schedule 1): Administration in Combination with PTH After Repeated Administration of Bone Resorption Inhibitor
(§3) Female retired rats (F344/NSlc) were used. At the age of 6 months, 87 rats were assigned to OVX (ovariectomy) and the other 10 rats were assigned to sham operation.
(§4) Another 15 rats were assigned to OVX and 5 rats were assigned to sham operation, in order to these groups to an autopsy in the course.
(§5) To the group the compound was administered; a bone resorption inhibitor was administered orally from the next day of OVX over a period of 83 days.
[…] Other groups to which the compound was administered, a bone resorption inhibitor was administered orally, and PTH or vehicle (saline containing 0.1% BSA) was administered subcutaneously, 55 days after OVX. […] The interval between the first and the second administration was 5-7 hours.
(§6) PTH was administered by subcutaneous injection from the back three times a week by a dose of 10 μg/kg from the 57th day after OVX. The drugs were administed according to the grouping of table 1.
(§7) In the group in which the compound was administered, on the 83rd day after OVX, BMD of tibia, lumbar BMD, concentration of urinary C-terminal telopeptide of type I collagen (CTX) and serum osteocalcin (OC) were measured. In the autopsy groups, concentration of urinary CTX and serum OC were measured on samples from the 55th day.
The BMD was determined by measurement device of peripheral BMD (pQCT: peripheral Quantitative Computed Tomography, XCT-Research SA+Stratec Medizintechnik GmbH, version 5.40) with voxel size 0.12 mm. The BMD of the left proximal tibia (at a point 4 mm from the proximal end) was measured.
(§8) In order to compare the sham group and the OVX control group, t-test (EXSAS (version 6.1), ARM SYSTEX CO., LTD.); in order to compare the effectiveness of the test compounds, Tukey test (EXSAS (version 6.1), ARM SYSTEX CO., LTD.), were used respectively. Less than 5% was assumed to be a significant difference.

[3] = system: ovariectomized rat osteoporosis model (OVX); assay: Experiment 1: serum osteocalcin (OC) concentration, bone formation marker, in OVX rats; settings: for serum OC concentration (bone formation marker) at intermediate autopsy: Experiment 1, FIG. 2, repeated oral administration for 55 days; for serum OC concentration on the 83rd day, in combination with PTH: combination with PTH compared with PTH sole administration
Excerpt: as §1, §2, §3, §4, §5
On 55 days after OVX, the autopsy was done in autopsy group. Other groups to which the compound was administered, a bone resorption inhibitor was administered orally, and PTH or vehicle (saline containing 0.1% BSA) was administered subcutaneously, 55 days after OVX. […] The interval between the first and the second administration was 5-7 hours.
as §6, §7
Fifty-five days after administration, in the autopsy, collected serum was used to measure the serum OC concentration with a kit for OC measurement (BIOTRAK; Osteocalcin, rat ELISA system).
as §8

[4] = system: ovariectomized rat osteoporosis model (OVX); assay: Experiment 1: urinary CTX concentration, bone resorption marker, in OVX rats; settings: Experiment 1, FIG. 4; for urinary CTX concentration on the 83rd day, combination administration with PTH: in combination with PTH
Excerpt: For the purpose of clarifying the characteristics, the effect of a cathepsin K inhibitor (a bone resorption inhibitor) in combination with a type of PTH (a bone formation stimulator) was examined using an ovariectomized rat osteoporosis model (abbreviated as OVX hereafter). The effect of a bisphosphonate (BP) in combination with a type of PTH was also examined. The effects were compared with each other. • (1) a solution of the compound (I): […] In the following examples, PTH (1-34) is abbreviated as PTH unless specified. 2) Test Method Experiment 1 (Administration Schedule 1): Administration in Combination with PTH After Repeated Administration of Bone Resorption Inhibitor Female retired rats ([…] used. At the age of 6 months, 87 rats were assigned to OVX (ovariectomy) and the other 10 rats were assigned to sham operation. To the group the compound was administered; a bone resorption inhibitor was administered orally from the next day of OVX over a period of 83 days. […] On 55 days after OVX, the autopsy was done in autopsy group. Other groups to which the compound was administered, a bone resorption inhibitor was administered orally, and PTH or vehicle (saline containing 0.1% BSA) was administered subcutaneously, 55 days after OVX. […] The interval between the first and the second administration was 5-7 hours. PTH was administered by subcutaneous injection from the back three times a week by a dose of 10 μg/kg from the 57th day after OVX. The drugs were administed according to the grouping of table 1. In the group in which the compound was administered, on the 83rd day after OVX, BMD of tibia, lumbar BMD, concentration of urinary C-terminal telopeptide of type I collagen (CTX) and serum osteocalcin (OC) were measured. In the autopsy groups, concentration of urinary CTX and serum OC were measured on samples from the 55th day. Urine was collected before the day of an autopsy, and urinary CTX was measured with a kit for rat CTX measurement (RatLaps ELISA; nordicbioscience). In measurement of absorbance, microplate reader (SPECTRA MAX 250, Japan Molecular Devices Inc.) was used. […] In order to compare the sham group and the OVX control group, […] CO., LTD.); in order to compare the effectiveness of the test compounds, Tukey test ([…] CO., LTD.), were used respectively. Less than 5% was assumed to be a significant difference.

[5] = system: ovariectomized rat osteoporosis model (OVX); assay: Experiment 2 (administration schedule 2): BMD of tibia by pQCT in OVX rats; settings: Experiment 2, FIG. 5; for BMD of the tibia on the 83rd day, each alone: 83 days from next day of OVX, sole administration

| Molecule | inhibitory effect on urinary CTX compared with compound (I) [1] | BMD of the left leg tibia (4 mm slice from proximal end) at intermediate autopsy [2] | BMD of the left leg tibia on the 83rd day, in combination with PTH [2] | BMD of the left leg tibia on the 83rd day, each alone [2] | serum OC concentration (bone formation marker) at intermediate autopsy [3] | serum OC concentration on the 83rd day, in combination with PTH ([3]; Experiment 1, FIG. 4) | urinary CTX concentration on the 83rd day, combination administration with PTH [4] | urinary CTX concentration on the 83rd day, sole administration [4] | urinary CTX inhibitory effect compared with compound (I) ([4]; sole and combination administration with PTH) | BMD of the tibia on the 83rd day, each alone [5] | serum OC concentration on the 83rd day, PTH sole administration ([3]; Experiment 1, FIG. 4, PTH 10 μg/kg s.c.) | urinary CTX concentration (bone resorption marker) on the 83rd day, combination administration ([1]; in combination with PTH) | urinary CTX concentration (bone resorption marker) on the 83rd day, sole administration ([1]; sole administration group) | effect on increase of BMD of tibia in combination with PTH ([5]; 83 days in combination with PTH 3 μg/kg s.c.) |
| --- | --- | --- | --- | --- | --- | --- | --- | --- | --- | --- | --- | --- | --- | --- |
| NCCCC(O)(P(=O)(O)O)P(=O)(O)O [ALN, Alendronate sodium hydrate] | weaker than that of compound (I) | showed an increasing effect of BMD in the tibia | did not show any additive effect | suppressed the OVX-induced BMD loss in the tibia | decreased | significantly decreased serum OC concentration | showed a urinary CTX inhibitory effect | showed a urinary CTX inhibitory effect | weaker than that of compound (I) | inhibited the reduction of BMD of tibia caused by OVX |  |  |  |  |
| human PTH (1-34) amide (SVSEIQLMHNLGKHLNSMERVEWLRKKLQDVHNF-NH2; UniProt P01270 32-65, looked up, fragment) [partial peptide of PTH, bone formation stimulator (APC Lot.N05129A1)] |  |  |  | suppressed the OVX-induced BMD loss in the tibia |  |  |  |  |  | inhibited the reduction of BMD of tibia caused by OVX | increased |  |  |  |
| CN1CCS/C1=N\NC(=O)C(=O)C(NC(=O)C1CCCCCC1)C1CCOCC1.Cl (stereo not drawn) [compound (I), N-{3-[(2Z)-2-(3-methyl-1,3-thiazolidin-2-ylidene)hydrazino]-2,3-dioxo-1-tetrahydro-2H-pyran-4-ylpropyl}cycloheptanecarboxamide hydrochloride] |  | showed an increasing effect of BMD in the tibia | showed an additive effect in BMD of tibia | suppressed the OVX-induced BMD loss in the tibia | not decreased | did not decrease the serum OC concentration significantly | showed an inhibitory effect | showed an inhibitory effect |  | inhibited the reduction of BMD of tibia caused by OVX |  | has an inhibitory effect on urinary CTX concentration | has an inhibitory effect on urinary CTX concentration | greater than that of ALN in combination with PTH |
